According to patent US20250360125A1, “METHODS AND COMPOSITIONS FOR TREATING HUNTINGTON'S DISEASE AND ITS SYMPTOMS” (Corcept Therapeutics Incorporated, priority 2023, published 2025):

Assays:
[1] = system: GFAP; experiment: GFAP immunohistochemistry (astrocyte marker) in striatum and hippocampus of R6/2 mice; format: in vivo, mouse; details: experiment 1, male HD R6/2 mice, 30 mg/kg s.c. daily for 5 weeks
Experimental: (§1) Animal studies: experimental procedures From 6 weeks of age onwards, mice received a daily subcutaneous (s.c.) injection either with 30 mg/kg of CORT113176 or vehicle (Veh; 10% ethanol and castor oil in experiment 1 or sesame oil in experiment 2) for five consecutive weeks. In experiment 1, male and female mice were assigned into one of the following groups: 1) WT+Veh (n=5 per sex), 2) WT+CORT113176 (n=5), 3) HD+Veh (n=5) or 4) HD+CORT113176 (n=5). In the final analysis there was an unequal group distribution for the male mice due to a mislabeled genotype and a mouse reaching an earlier endpoint resulting in n=6 in the WT+Veh group and n=3 in the HD+Veh group. […] Bodyweight was measured weekly and motor tests were performed at 1 PM to monitor the disease progression (as described below). […] The slides of DARP32, GFAP and Iba1 were scanned with the Axio Slide Scanner (Zeiss, Axio Slide Scan.Z1) and the mHtt slides were analyzed using the confocal microscope (Leica, White Light Laser Confocal Microscope TCS SP8 X). All obtained images were analyzed using ImageJ (version 1.52p). DARP32, GFAP and Iba1 the mean intensity was measured in the striatum and hippocampus. The total number of aggregates in a specific region of interest (ROI), the total area in the ROI and the average size of the aggregates were measured.

[2] = system: other steroid receptors; details: no test described; cited from earlier work
[3] = system: R6/2 mouse model; experiment: Hindlimb clasping test in R6/2 mice; format: in vivo; details: 30 mg/kg s.c. daily for 5 weeks
Experimental: (§2) HD and wild-type (WT) R6/2 mice were purchased from JAX (The Jackson Laboratory, ME, USA) and arrived in the animal facility at 4-weeks of age. The mice were housed under normal conditions (room temperature, 12 hours light/dark cycle) with food and water ab libitum. The mice were housed 3-4 per cage, separated by sex, but different genotypes were housed together to improve the survival of the HD mice^11. Genotyping on tail samples that were collected post-mortem was performed by Laragen (CA, USA) to confirm that all HD mice had between 120-130 CAG repeats.
Animal studies: experimental procedures From 6 weeks of age onwards, mice received a daily subcutaneous (s.c.) injection either with 30 mg/kg of CORT113176 or vehicle (Veh; 10% ethanol and castor oil in experiment 1 or sesame oil in experiment 2) for five consecutive weeks. In experiment 1, male and female mice were assigned into one of the following groups: 1) WT+Veh (n=5 per sex), 2) WT+CORT113176 (n=5), 3) HD+Veh (n=5) or 4) HD+CORT113176 (n=5). In the final analysis there was an unequal group distribution for the male mice due to a mislabeled genotype and a mouse reaching an earlier endpoint resulting in n=6 in the WT+Veh group and n=3 in the HD+Veh group. In experiment 2, male mice were assigned into the following groups: 1) WT+Veh (n=10), 2) HD+Veh (n=10, ultimately n=8 due to a non-responder that met outlier criteria and a mouse reaching an earlier timepoint) and 3) HD+CORT113176 (n=10). Bodyweight was measured weekly and motor tests were performed at 1 PM to monitor the disease progression (as described below). On day 19 and day 34, blood samples were taken in the morning to evaluate corticosterone levels. On day 34, the animals were sacrificed using CO2 inhalation, blood was collected via cardiac puncture and the animals were perfused with cold PBS. Afterwards, several tissues were harvested and snap-frozen for further analysis. Brains were collected and stored for 24 hours at 4% PFA for IHC (further described below). […]

[4] = system: R6/2 mouse model; experiment: Gait abnormalities in R6/2 mice; format: in vivo; details: male R6/2 mice
[5] = system: Iba1; experiment: Iba1 immunohistochemistry (microglia marker) in hippocampus of R6/2 mice; format: in vivo, mouse; details: experiment 1, male HD R6/2 mice, 30 mg/kg s.c. daily for 5 weeks
Experimental: as §1

[6] = system: R6/2 mouse model; experiment: Forelimb grip strength in R6/2 mice; format: in vivo; details: 30 mg/kg s.c. daily for 5 weeks
Experimental: as §2
Animal studies: experimental procedures From 6 weeks of age onwards, mice received a daily subcutaneous (s.c.) injection either with 30 mg/kg of CORT113176 or vehicle (Veh; 10% ethanol and castor oil in experiment 1 or sesame oil in experiment 2) for five consecutive weeks. In experiment 1, male and female mice were assigned into one of the following groups: 1) WT+Veh (n=5 per sex), 2) WT+CORT113176 (n=5), 3) HD+Veh (n=5) or 4) HD+CORT113176 (n=5). […] Bodyweight was measured weekly and motor tests were performed at 1 PM to monitor the disease progression (as described below). […]
Grip strength: Grip strength measurements were performed weekly to quantify muscle strength. […] The mouse was then gently pulled away until grip was lost, and the force that was required to do this was monitored. […]

[7] = system: mHtt aggregates; experiment: mHtt aggregate immunohistochemistry in striatum and hippocampal CA1 of R6/2 mice; format: in vivo, mouse; details: experiment 2, male HD R6/2 mice, vs vehicle-treated HD mice
Experimental: Animal studies: experimental procedures From 6 weeks of age onwards, mice received a daily subcutaneous (s.c.) injection either with 30 mg/kg of CORT113176 or vehicle (Veh; 10% ethanol and castor oil in experiment 1 or sesame oil in experiment 2) for five consecutive weeks. In experiment 1, male and female mice were assigned into one of the following groups: 1) WT+Veh (n=5 per sex), 2) WT+CORT113176 (n=5), 3) HD+Veh (n=5) or 4) HD+CORT113176 (n=5). In the final analysis there was an unequal group distribution for the male mice due to a mislabeled genotype and a mouse reaching an earlier endpoint resulting in n=6 in the WT+Veh group and n=3 in the HD+Veh group. In experiment 2, male mice were assigned into the following groups: 1) WT+Veh (n=10), 2) HD+Veh (n=10, ultimately n=8 due to a non-responder that met outlier criteria and a mouse reaching an earlier timepoint) and 3) HD+CORT113176 (n=10). Bodyweight was measured weekly and motor tests were performed at 1 PM to monitor the disease progression (as described below). On day 19 and day 34, blood samples were taken in the morning to evaluate corticosterone levels. On day 34, the animals were sacrificed using CO2 inhalation, blood was collected via cardiac puncture and the animals were perfused with cold PBS. Afterwards, several tissues were harvested and snap-frozen for further analysis. Brains were collected and stored for 24 hours at 4% PFA for IHC (further described below). Immunohistochemistry Brains were isolated and the left hemisphere was fixated in 4% PFA (Sigma-Aldrich, 8187085000) for 24 hours. Afterwards the brains were transferred to a 30% sucrose solution for 24-48 hours and stored at −80° C. until further processing. Cryosections of 10 μM were collected (CryoStar NX70) on slides (Avantor, VWR® Microscope Slides, 631-1166) and stored at −20° C. until staining. The slides were incubated for 25 minutes with 0.1% Triton X-100 (Sigma-Aldrich), washed with 0.1% PBS/Tween (Tween®20, Sigma-Aldrich). The background signal was blocked with 5% PBSA for 30 minutes before the incubation with the primary antibody DARP32, (1:500, abcam, EP720Y, ab40801), GFAP (1:500, Agilent DAKO, Z0334), Iba1, (1:500, Fujifilm Wako, 019-19741) or mHtt, 1:500 (1:500, abcam, EPR5526, ab209668) overnight at 4° C. The following day slides were washed with 0.1% PBS/Tween before incubation with the secondary antibody goat anti-rabbit Alexa Fluor 488 (1:250, Invitrogen, A-110088) for 30 minutes. After a final wash with 0.1% PBS/Tween, ProLong gold with DAPI (Invitrogen, P36931) was added with a coverslip (Thermo-Fisher, Menzel-Glaser, 0980) and the slides were dried at room temperature. The slides of DARP32, GFAP and Iba1 were scanned with the Axio Slide Scanner (Zeiss, Axio Slide Scan.Z1) and the mHtt slides were analyzed using the confocal microscope (Leica, White Light Laser Confocal Microscope TCS SP8 X). All obtained images were analyzed using ImageJ (version 1.52p). DARP32, GFAP and Iba1 the mean intensity was measured in the striatum and hippocampus. The total number of aggregates in a specific region of interest (ROI), the total area in the ROI and the average size of the aggregates were measured.

[8] = system: R6/2 mouse model; experiment: Observed epileptic seizures in R6/2 mice (Racine scale); format: in vivo
Experimental: as §2
Animal studies: experimental procedures From 6 weeks of age onwards, mice received a daily subcutaneous (s.c.) injection either with 30 mg/kg of CORT113176 or vehicle (Veh; 10% ethanol and castor oil in experiment 1 or sesame oil in experiment 2) for five consecutive weeks. In experiment 1, male and female mice were assigned into one of the following groups: 1) WT+Veh (n=5 per sex), 2) WT+CORT113176 (n=5), 3) HD+Veh (n=5) or 4) HD+CORT113176 (n=5). In the final analysis there was an unequal group distribution for the male mice due to a mislabeled genotype and a mouse reaching an earlier endpoint resulting in n=6 in the WT+Veh group and n=3 in the HD+Veh group. In experiment 2, male mice were assigned into the following groups: 1) WT+Veh (n=10), 2) HD+Veh (n=10, ultimately n=8 due to a non-responder that met outlier criteria and a mouse reaching an earlier timepoint) and 3) HD+CORT113176 (n=10). Bodyweight was measured weekly and motor tests were performed at 1 PM to monitor the disease progression (as described below). On day 19 and day 34, blood samples were taken in the morning to evaluate corticosterone levels. On day 34, the animals were sacrificed using CO2 inhalation, blood was collected via cardiac puncture and the animals were perfused with cold PBS. Afterwards, several tissues were harvested and snap-frozen for further analysis. Brains were collected and stored for 24 hours at 4% PFA for IHC (further described below).
These seizures were not anticipated, but every case was documented throughout the experiment and scored using the Racine scale^15.

[9] = experiment 1, male HD R6/2 mice, vs vehicle-treated HD mice
[10] = experiment 2 (larger cohort), male HD R6/2 mice, vs vehicle

Structure (SMILES)	GFAP immunoreactivity in striatum [1]	GFAP staining intensity in hippocampus [1]	Cross-reactivity with other steroid receptors (selectivity for GR) [2]	Hindlimb clasping score ([3]; experiment 1, female HD R6/2 mice)	Hindlimb clasping score [3, 9]	Clasping score [3, 10]	Gait abnormalities [4]	Iba1 intensity in hippocampus [5]	Forelimb grip strength over time [6, 9]	Grip strength [6, 10]	Number of mHtt aggregates in striatum [7]	Total mHtt aggregate area in CA1 region of hippocampus [7]	Total number of mHtt aggregates in CA1 region of hippocampus [7]	mHtt aggregate size in CA1 region of hippocampus [7]	mHtt aggregate size in striatum [7]	Total number of epileptic seizures ([8]; experiment 1, female HD R6/2 mice, 30 mg/kg s.c. daily for 5 weeks)	Total number of epileptic seizures ([8]; experiment 1, male HD R6/2 mice, 30 mg/kg s.c. daily for 5 weeks, vs vehicle-treated HD mice)	Time of occurrence of epileptic seizures ([8]; experiment 1, treated HD R6/2 mice, 5-week study)	Number of epileptic seizures ([8]; experiment 2 (larger cohort), male HD R6/2 mice, 30 mg/kg s.c. daily for 5 weeks)
O=C(c1ccccn1)[C@]12Cc3cnn(-c4ccc(F)cc4)c3C=C1CCN(S(=O)(=O)c1ccc(C(F)(F)F)cc1)C2 [CORT113176]	normalized GFAP levels in male	tended to normalize this HD effect	lacks significant cross-reactivity with other steroid receptors	at later timepoints the treatment did attenuate the clasping score	reduced clasping score	reduced clasping score	significantly delayed	tended to be higher	attenuated this decrease of muscle function	improved grip strength	significantly decreased this number of mHtt aggregates	smaller total aggregate area	significantly fewer aggregates	smaller aggregates	of a similar size in vehicle- and CORT113176-treated HD groups	none were observed	occurred slightly more frequently in the vehicle-treated HD mice	occurred mostly near the end of the five weeks (day 32)	Only one epileptic seizure was observed
CC#C[C@]1(O)CC[C@H]2[C@@H]3CCC4=CC(=O)CCC4=C3[C@@H](c3ccc(N(C)C)cc3)C[C@@]21C [mifepristone, reference compound]	–	–	is not specific for GR	–	–	–	–	–	–	–	–	–	–	–	–	–	–	–	–
CC(C)n1ncc(S(=O)(=O)N2CC[C@H]3Cc4c(cnn4-c4ccc(F)cc4)C[C@]3(C(=O)c3cscn3)C2)n1 [zavacorilant, ((4aR,8aS)-1-(4-fluorophenyl)-6-((2-isopropyl-2H-1,2,3-triazol-4-yl)sulfonyl)-4,4a,5,6,7,8,8a,9-octahydro-1H-pyrazolo[3,4-g]isoquinolin-4a-yl)(thiazol-4-yl)methanone]	–	–	lacks significant cross-reactivity with other steroid receptors	–	–	–	–	–	–	–	–	–	–	–	–	–	–	–	–
